Results published in ChEMBL document CHEMBL4507268 (2021).
pKi: −log10 of the molar value.

What was measured:
[1] = target: Ribosomal protein S6 kinase alpha-2 (Homo sapiens) (UniProt Q15349); settings: Compound concentration 1000.0 nM
[2] = test system: ALK tyrosine kinase receptor (Homo sapiens), Q9UM73 [C1156Y]; settings: Compound concentration 1000.0 nM
[3] = target: Tyrosine-protein kinase ABL2 (Homo sapiens) (UniProt P42684); settings: Compound concentration 1000.0 nM
[4] = target: T1, Discoidin domain-containing receptor 2 (Homo sapiens) (UniProt Q16832); settings: Compound concentration 1000.0 nM
T1 sequence (whole entry): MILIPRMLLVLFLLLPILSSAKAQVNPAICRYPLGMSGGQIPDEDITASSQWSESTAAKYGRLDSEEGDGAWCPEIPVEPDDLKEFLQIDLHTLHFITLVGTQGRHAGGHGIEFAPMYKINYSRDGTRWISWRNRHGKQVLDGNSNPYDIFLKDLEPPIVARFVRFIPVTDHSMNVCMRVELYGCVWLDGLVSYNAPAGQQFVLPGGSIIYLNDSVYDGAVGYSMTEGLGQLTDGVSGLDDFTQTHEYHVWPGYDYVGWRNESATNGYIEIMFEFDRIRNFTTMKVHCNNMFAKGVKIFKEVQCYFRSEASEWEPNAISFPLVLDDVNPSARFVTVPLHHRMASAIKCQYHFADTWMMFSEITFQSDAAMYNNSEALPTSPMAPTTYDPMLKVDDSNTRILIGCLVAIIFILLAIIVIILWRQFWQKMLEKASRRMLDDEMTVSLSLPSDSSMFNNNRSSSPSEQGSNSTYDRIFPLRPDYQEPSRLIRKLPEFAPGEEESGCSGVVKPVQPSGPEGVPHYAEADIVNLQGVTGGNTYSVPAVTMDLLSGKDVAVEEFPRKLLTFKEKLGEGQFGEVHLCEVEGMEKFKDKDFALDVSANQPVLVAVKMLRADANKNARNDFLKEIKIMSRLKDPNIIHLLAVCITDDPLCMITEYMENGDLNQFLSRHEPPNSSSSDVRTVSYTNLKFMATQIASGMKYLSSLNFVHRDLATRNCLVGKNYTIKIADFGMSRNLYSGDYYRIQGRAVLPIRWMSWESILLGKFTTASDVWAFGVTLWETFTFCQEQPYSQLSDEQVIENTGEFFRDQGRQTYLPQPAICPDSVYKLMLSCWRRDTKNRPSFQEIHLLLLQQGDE

[5] = target: Glycogen synthase kinase-3 beta (Homo sapiens) (UniProt P49841); settings: Compound concentration 1000.0 nM
[6] = target: Interleukin-1 receptor-associated kinase 3 (Homo sapiens) (UniProt Q9Y616); settings: Compound concentration 1000.0 nM
[7] = target: Sigma non-opioid intracellular receptor 1 (Homo sapiens, UniProt Q99720); experiment: GPCRScan assay: inhibition of Sigma 1; set-up: radioligand conc. used [nm] 4.0 – 5.0, parental cells HEKT
Sigma non-opioid intracellular receptor 1, sequence (Q99720 whole entry): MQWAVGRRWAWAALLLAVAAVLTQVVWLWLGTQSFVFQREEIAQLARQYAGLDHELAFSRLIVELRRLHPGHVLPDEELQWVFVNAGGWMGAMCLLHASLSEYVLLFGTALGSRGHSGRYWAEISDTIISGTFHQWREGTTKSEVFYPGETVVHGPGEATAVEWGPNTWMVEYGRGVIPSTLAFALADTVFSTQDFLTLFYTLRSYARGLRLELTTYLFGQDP

[8] = test system: Hepatocyte growth factor receptor (Homo sapiens), P08581 [M1250T]; settings: Compound concentration 1000.0 nM
[9] = target: Mitogen-activated protein kinase 11 (Homo sapiens) (UniProt Q15759); settings: Compound concentration 1000.0 nM
[10] = target: T2, Ephrin type-A receptor 8 (Homo sapiens) (UniProt P29322); settings: Compound concentration 1000.0 nM
T2 sequence (whole entry): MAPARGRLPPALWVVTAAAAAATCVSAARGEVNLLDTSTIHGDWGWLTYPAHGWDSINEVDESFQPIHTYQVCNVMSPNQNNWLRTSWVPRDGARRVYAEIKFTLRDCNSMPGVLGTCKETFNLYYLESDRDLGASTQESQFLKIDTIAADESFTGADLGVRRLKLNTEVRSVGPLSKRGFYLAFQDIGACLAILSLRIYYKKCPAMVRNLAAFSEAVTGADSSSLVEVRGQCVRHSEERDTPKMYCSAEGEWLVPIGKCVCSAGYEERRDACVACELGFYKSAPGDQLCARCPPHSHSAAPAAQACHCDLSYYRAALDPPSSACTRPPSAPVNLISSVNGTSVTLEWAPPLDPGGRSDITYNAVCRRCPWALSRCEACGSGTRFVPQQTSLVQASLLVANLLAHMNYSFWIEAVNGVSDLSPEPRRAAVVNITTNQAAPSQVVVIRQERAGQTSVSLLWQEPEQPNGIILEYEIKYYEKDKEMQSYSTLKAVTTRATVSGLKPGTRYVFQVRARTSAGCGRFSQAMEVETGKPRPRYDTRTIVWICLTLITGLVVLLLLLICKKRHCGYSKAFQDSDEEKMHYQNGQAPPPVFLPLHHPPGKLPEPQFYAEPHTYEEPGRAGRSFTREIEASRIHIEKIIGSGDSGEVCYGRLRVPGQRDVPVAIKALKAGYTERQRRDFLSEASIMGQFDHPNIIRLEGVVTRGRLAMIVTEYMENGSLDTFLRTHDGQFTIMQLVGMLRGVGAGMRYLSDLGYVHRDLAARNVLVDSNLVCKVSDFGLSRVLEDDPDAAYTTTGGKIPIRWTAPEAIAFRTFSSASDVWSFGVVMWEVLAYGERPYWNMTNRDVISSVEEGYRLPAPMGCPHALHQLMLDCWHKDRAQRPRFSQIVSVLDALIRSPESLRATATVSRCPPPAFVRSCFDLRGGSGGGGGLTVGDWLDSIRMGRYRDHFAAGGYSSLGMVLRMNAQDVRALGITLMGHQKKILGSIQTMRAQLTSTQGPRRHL

[11] = test system: Mast/stem cell growth factor receptor Kit (Homo sapiens), P10721 [V559D,V654A]; settings: Compound concentration 1000.0 nM
Mast/stem cell growth factor receptor Kit (Homo sapiens), P10721 [V559D,V654A], sequence (P10721 whole entry V559D/V654A): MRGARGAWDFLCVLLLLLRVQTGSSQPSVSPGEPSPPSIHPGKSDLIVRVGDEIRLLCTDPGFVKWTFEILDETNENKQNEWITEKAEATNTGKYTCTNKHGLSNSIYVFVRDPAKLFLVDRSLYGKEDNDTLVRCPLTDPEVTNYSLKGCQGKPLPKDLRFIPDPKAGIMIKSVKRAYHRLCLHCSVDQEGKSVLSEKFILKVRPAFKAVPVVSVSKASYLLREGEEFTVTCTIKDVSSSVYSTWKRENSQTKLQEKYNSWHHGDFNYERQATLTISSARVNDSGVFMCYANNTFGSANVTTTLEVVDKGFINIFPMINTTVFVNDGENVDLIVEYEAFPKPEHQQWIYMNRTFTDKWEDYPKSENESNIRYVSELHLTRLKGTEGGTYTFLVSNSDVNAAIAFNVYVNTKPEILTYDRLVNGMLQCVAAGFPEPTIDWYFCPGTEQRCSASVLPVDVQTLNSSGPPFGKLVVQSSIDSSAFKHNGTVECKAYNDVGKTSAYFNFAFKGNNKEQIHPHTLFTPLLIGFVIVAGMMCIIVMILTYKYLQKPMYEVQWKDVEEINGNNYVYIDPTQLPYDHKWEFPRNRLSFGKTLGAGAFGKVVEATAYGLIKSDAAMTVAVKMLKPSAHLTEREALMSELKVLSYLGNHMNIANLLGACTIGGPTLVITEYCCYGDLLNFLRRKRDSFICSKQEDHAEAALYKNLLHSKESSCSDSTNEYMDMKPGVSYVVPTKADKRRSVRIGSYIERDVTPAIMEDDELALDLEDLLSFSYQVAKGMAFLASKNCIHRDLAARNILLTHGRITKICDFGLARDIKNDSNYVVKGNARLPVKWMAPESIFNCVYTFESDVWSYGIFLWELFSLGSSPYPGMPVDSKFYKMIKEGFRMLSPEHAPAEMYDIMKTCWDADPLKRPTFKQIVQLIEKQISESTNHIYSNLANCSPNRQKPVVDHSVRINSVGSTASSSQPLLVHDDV

[12] = target: Sigma intracellular receptor 2 (Homo sapiens, UniProt Q5BJF2); settings: Compound concentration 10.0 uM
[13] = target: Tyrosine-protein kinase Srms (Homo sapiens) (UniProt Q9H3Y6); settings: Compound concentration 1000.0 nM
[14] = test system: Tyrosine-protein kinase ABL1 (Homo sapiens), P00519 [Q252H]; settings: Compound concentration 1000.0 nM
[15] = target: Activin receptor type-1-like (Homo sapiens) (UniProt P37023); settings: Compound concentration 1000.0 nM
Activin receptor type-1-like (Homo sapiens), sequence (P37023 whole entry): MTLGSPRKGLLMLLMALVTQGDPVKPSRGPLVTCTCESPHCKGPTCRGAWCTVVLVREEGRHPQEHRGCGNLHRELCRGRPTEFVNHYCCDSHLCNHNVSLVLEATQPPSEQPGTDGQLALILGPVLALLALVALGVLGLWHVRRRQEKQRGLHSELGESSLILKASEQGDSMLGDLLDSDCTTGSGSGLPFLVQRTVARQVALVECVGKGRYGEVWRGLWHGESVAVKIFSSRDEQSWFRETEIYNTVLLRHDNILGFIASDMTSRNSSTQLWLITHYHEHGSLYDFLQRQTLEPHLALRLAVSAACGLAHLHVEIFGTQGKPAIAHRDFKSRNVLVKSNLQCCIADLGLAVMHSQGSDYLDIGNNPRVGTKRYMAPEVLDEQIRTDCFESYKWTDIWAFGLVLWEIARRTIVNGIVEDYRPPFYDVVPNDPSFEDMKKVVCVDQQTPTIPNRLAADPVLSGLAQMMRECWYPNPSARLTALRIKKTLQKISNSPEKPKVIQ

[16] = target: Mitogen-activated protein kinase kinase kinase kinase 4 (Homo sapiens) (UniProt O95819); settings: Compound concentration 1000.0 nM
Mitogen-activated protein kinase kinase kinase kinase 4 (Homo sapiens), sequence (O95819 2-1239 limits assumed): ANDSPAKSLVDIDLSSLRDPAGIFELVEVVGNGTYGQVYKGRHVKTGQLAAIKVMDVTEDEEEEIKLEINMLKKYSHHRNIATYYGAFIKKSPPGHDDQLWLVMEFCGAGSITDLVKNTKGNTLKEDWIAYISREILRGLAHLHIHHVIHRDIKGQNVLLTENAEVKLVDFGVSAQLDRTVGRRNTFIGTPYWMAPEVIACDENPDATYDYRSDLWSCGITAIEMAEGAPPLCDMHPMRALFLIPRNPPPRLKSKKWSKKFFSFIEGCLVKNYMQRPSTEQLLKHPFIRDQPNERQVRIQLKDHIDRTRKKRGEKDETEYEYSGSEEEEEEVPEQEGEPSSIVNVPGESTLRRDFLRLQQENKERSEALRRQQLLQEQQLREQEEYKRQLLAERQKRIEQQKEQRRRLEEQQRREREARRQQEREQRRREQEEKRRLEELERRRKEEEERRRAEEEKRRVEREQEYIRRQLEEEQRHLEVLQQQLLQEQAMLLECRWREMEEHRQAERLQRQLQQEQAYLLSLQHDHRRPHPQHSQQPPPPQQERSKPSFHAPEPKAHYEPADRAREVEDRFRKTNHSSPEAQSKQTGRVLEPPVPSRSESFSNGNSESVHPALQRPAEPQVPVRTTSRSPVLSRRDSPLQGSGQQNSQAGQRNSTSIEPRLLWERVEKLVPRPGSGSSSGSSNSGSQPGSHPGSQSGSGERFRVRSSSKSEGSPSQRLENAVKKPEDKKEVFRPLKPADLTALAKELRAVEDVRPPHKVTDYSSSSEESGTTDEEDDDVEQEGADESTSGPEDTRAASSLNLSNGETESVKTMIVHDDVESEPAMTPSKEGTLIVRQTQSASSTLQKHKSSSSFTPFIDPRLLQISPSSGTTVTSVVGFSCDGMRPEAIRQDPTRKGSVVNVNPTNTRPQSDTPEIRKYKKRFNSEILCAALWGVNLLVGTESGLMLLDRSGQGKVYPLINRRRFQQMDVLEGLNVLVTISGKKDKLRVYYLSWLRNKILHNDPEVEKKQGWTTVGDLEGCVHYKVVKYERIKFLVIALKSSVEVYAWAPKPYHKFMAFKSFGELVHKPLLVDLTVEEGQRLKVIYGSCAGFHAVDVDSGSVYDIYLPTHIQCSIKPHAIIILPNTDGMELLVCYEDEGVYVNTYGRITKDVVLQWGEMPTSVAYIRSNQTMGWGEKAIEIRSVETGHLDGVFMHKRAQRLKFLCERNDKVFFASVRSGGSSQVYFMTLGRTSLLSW

[17] = target: D(1B) dopamine receptor (Homo sapiens) (UniProt P21918); settings: Compound concentration 10.0 uM
[18] = target: Death-associated protein kinase 2 (Homo sapiens) (UniProt Q9UIK4); settings: Compound concentration 1000.0 nM
Death-associated protein kinase 2 (Homo sapiens), sequence (Q9UIK4 whole entry, looked up): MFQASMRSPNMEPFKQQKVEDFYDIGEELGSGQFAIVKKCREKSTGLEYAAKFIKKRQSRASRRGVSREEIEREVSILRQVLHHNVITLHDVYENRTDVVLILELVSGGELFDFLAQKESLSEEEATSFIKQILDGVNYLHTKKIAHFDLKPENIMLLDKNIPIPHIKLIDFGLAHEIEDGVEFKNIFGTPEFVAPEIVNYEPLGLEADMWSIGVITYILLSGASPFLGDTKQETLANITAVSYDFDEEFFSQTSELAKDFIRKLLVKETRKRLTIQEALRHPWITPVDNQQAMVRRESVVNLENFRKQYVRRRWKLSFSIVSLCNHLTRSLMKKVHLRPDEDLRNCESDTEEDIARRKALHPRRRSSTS

[19] = test system: Proto-oncogene tyrosine-protein kinase receptor Ret (Homo sapiens), P07949 [V804L]; settings: Compound concentration 1000.0 nM
[20] = target: Activin receptor type-2B (Homo sapiens) (UniProt Q13705); settings: Compound concentration 1000.0 nM
Activin receptor type-2B (Homo sapiens), sequence (Q13705 whole entry): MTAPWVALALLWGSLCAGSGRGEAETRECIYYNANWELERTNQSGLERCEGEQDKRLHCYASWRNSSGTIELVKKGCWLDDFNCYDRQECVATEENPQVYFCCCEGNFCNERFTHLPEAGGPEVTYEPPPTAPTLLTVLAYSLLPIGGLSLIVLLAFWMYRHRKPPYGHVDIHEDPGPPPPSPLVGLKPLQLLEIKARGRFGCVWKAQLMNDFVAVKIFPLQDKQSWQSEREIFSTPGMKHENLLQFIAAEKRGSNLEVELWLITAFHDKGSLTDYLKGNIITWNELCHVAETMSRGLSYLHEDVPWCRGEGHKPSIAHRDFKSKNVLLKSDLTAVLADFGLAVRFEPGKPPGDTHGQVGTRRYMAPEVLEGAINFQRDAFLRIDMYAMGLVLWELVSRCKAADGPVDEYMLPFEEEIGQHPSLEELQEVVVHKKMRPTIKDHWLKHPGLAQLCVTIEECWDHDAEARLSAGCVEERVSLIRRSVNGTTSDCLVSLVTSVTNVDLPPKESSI

Tyrosine-protein kinase ABL2 (Homo sapiens), sequence (P42684 whole entry, the tested form may be a part): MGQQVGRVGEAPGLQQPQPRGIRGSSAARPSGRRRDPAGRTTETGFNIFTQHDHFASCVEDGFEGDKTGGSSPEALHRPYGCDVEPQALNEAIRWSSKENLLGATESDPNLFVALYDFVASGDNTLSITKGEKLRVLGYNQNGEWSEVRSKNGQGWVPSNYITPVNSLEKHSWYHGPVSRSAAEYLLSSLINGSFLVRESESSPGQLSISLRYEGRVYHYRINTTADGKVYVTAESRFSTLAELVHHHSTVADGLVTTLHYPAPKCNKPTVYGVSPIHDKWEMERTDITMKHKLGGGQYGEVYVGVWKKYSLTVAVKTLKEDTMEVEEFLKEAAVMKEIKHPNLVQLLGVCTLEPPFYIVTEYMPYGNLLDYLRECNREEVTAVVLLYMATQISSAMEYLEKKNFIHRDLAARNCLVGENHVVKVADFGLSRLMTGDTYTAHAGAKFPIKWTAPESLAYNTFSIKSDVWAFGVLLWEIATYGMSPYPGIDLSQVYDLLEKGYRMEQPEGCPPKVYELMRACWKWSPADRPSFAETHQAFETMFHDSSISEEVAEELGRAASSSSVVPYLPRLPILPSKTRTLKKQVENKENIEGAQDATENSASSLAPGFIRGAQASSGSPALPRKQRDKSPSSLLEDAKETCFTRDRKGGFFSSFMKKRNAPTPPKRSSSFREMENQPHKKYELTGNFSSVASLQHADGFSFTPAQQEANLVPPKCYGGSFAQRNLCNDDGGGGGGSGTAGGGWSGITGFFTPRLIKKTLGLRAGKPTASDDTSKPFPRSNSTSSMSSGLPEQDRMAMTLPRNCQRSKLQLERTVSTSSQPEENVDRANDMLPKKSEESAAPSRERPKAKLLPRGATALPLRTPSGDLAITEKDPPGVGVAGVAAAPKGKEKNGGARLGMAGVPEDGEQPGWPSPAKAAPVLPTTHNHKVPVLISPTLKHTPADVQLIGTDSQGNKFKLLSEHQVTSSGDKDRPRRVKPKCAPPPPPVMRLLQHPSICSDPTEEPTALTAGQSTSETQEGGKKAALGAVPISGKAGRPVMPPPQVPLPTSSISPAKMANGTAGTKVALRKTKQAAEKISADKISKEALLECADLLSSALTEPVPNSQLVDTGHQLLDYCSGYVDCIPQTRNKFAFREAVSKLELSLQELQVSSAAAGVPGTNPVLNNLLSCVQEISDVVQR

| SMILES | residual activity [1] | residual activity [2] | residual activity [3] | residual activity [4] | residual activity [5] | residual activity [6] | pKi [7] | residual activity [8] | residual activity [9] | residual activity [10] | residual activity [11] | inhibition [12] | residual activity [13] | residual activity [14] | residual activity [15] | residual activity [16] | inhibition [17] | residual activity [18] | residual activity [19] | residual activity [20] |
| --- | --- | --- | --- | --- | --- | --- | --- | --- | --- | --- | --- | --- | --- | --- | --- | --- | --- | --- | --- | --- |
| Cc1nc(C2CCN(C(=O)c3ccc(OC(F)(F)F)cc3N)CC2)c2ncc(N3CCN(C)CC3)cc2n1 [BAY-693] | 100% | 100% | 93% | 92% | 100% | 99% | 5.63 | 97% | 100% | 98% | 100% | 51.4% | 100% | 100% | 91% | 100% | 12.4% | 100% | 73% | 100% |
| CN1CCN(c2cnc3c(C4CCN(C(=O)c5ccc(OC(F)(F)F)cc5N)CC4)ncnc3c2)CC1 [BAY-885] | 100% | 100% | 100% | 100% | 100% | 100% | 5.60 | 100% | 98% | 100% | 84% | 30.9% | 100% | 100% | 94% | 100% | 4.63% | 90% | 97% | 100% |
